Data on 55 molecules can be found in patent US8552032B2, “Bicyclic derivatives useful as inhibitors of DPP-1” (Janssen Pharmaceutica NV, priority 2009, dated 2013).

Bounds are passed on as bounds.

In the experiment the target is T1, recombinant human DPP-1 (Cathepsin C) (Homo sapiens, UniProt P53634).
T1 construct: made in house
T1 sequence (P53634 25-463): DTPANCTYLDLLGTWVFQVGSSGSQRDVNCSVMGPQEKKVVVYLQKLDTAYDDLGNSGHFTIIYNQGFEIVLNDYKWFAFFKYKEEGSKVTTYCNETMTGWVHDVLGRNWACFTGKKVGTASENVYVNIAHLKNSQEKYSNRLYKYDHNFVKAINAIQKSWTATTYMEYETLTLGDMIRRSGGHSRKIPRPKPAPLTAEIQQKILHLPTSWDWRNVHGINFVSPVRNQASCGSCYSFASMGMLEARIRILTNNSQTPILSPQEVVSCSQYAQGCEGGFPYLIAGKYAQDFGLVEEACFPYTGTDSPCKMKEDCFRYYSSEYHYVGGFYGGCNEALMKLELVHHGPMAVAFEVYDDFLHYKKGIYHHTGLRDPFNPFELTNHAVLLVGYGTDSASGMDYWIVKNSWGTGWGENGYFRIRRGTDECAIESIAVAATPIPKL
Nature of the experiment: DPP-1 Inhibition Assay (in vitro), fluorogenic substrate GR-AMC. The format is biochemical. To be noted: 0.15 nM DPP-1, 10 uM GR-AMC, pH 7.0, room temperature; average value where tested multiple times. Here is the method:
Test compounds were assessed for DPP-1 (Cathepsin C) inhibitory activity using a fluorogenic substrate, GR-AMC (Glycine-Arginine-amino-4-methylcoumarin, Bachem, 1-1215). The amount of amino-methylcoumarin released is proportional to the DPP-1 activity, and the reaction is monitored kinetically with a Molecular Devices plate reader using black 96-well plates.
All compounds were tested under room temperature conditions. The assay buffer consisted of 50 mM HEPES, pH 7.0, 100 mM NaCl, 2 mM glutathione (GSH), and 0.002% TWEEN 20. GSH and TWEEN 20 were added to the buffer fresh daily. Just prior to use, an in-house preparation of recombinant human DPP-1 (240 μM stock, MW 49.6 kD) was diluted 600-fold in assay buffer containing fresh 2 mM dithiothreitol (DTT) to activate the enzyme, then diluted into assay buffer (without DTT) 133-fold for a DPP-1 working solution of 3 nM. Test compounds were diluted in DMSO for 20× their final assay concentrations.
Additions to a 96-well black Costar 3915 plates were as follows: 90 μL of 11 μM GR-AMC, 5 μL test compound (followed by mixing), and 5 μL 3 nM DPP1 to start the reaction. Fluorescent reactions were monitored kinetically at 360 nm excitation, 440 nm emission on a Molecular Devices Spectramax XPS reader. The Softmax Pro software of the reader determined the initial velocity of the selected data (the first 3-5 minutes of the reaction), and the best linear regression fit of the initial kinetic data. Final assay conditions were 0.15 nM DPP-1, 10 uM GR-AMC, 50 mM HEPES, pH 7.0, 100 mM NaCl, 2 mM GSH, 0.002% TWEEN 20, 1 uM DTT, 5.0% DMSO. Initial velocity rates were plotted vs. test compound concentration by use of a four-parameter logistics equation (nonlinear regression, sigmoidal dose-response (variable slope), with fixed Hill (1.0) using GraphPad Prism® software for determination of DPP-1 IC50. Within-run assay coefficient of variation (CV) was generally <10%; between-run CV <20%.
Representative compounds of the present invention were tested according to the procedure as described above, with results as listed in Table 12, below.
For orientation: IC50 means the midpoint of a concentration-inhibition curve. Regarding `CC[C@H](N)C(=O)NCCCc1cc2cc(C(=O)Nc3ccc(OC)c(OC)c3)ccc2[nH]1` (single isomer, unassigned) [Compound 110], the concentration for half-maximal inhibition (IC50) was more than 10000 nM.

With `N[C@@H](Cc1cccs1)C(=O)N1CCC(c2cc3ccccc3o2)CC1` [Compound 1], the IC50 turned out to be 1200 nM.

With `COc1ccc(-c2ccc3[nH]c(C4CCN(C(=O)[C@@H](N)Cc5cccs5)CC4)cc3c2)cc1OC` [Compound 2, (S)-2-amino-1-(4-(5-(3,4-dimethoxyphenyl)-1H-indol-2-yl)piperidin-1-yl)-3-(thiophen-2-yl)propan-1-one], the IC50 stood at 94 nM.

For `N[C@@H](Cc1cccs1)C(=O)N1CCC(c2cc3cc(-c4ccc5c(c4)OCCO5)ccc3[nH]2)CC1` [Compound 3], the half-maximal inhibitory concentration (IC50) was 270 nM.

`COc1ccc(-c2ccc3[nH]c(C4CCN(C(=O)[C@@H](N)Cc5cccs5)CC4)cc3c2)cc1` [Compound 4]: the half-maximal inhibitory concentration (IC50) was 330 nM.

Take `NC(=O)c1cccc(-c2ccc3[nH]c(C4CCN(C(=O)[C@@H](N)Cc5cccs5)CC4)cc3c2)c1` [Compound 5]: the half-inhibitory concentration (IC50) was 300 nM.

Consider `N[C@@H](Cc1cccs1)C(=O)N1CCC(c2cc3cc(-c4ccc5c(c4)OCO5)ccc3[nH]2)CC1` [Compound 6], for which the IC50 came out at 260 nM.

With `COc1ccc(NC(=O)c2ccc3[nH]c(C4CCN(C(=O)[C@@H](N)Cc5cccs5)CC4)cc3c2)cc1OC` [Compound 7], the IC50 came out at 140 nM.

On to `NC(=O)c1cccc(-c2ccc3[nH]c(C4CCN(C(=O)[C@@H](N)Cc5nccs5)CC4)cc3c2)c1` [Compound 8], for which the IC50 came to 460 nM.

Turning to `CC[C@H](N)C(=O)N1CCC(c2cc3cc(-c4ccc(OC)c(OC)c4)ccc3[nH]2)CC1` [Compound 9], the 50% inhibitory concentration (IC50) is 3700 nM.

In the case of `COc1ccc(-c2ccc3[nH]c(C4CCN(C(=O)[C@@H](N)Cn5cccn5)CC4)cc3c2)cc1OC` [Compound 11], the half-maximal inhibitory concentration (IC50) is approximately 12000 nM.

With `COc1ccc(-c2ccc3[nH]c(C4CCN(C(=O)[C@@H](N)CC5CCC5)CC4)cc3c2)cc1OC` [Compound 12], the concentration for half-maximal inhibition (IC50) came to 14000 nM.

On to `COc1ccc(-c2ccc3[nH]c(C4CCN(C(=O)[C@@H](N)Cc5ccco5)CC4)cc3c2)cc1OC` [Compound 13], for which the IC50 is 850 nM.

With `COc1ccc(-c2ccc3[nH]c(C4CCN(C(=O)[C@@H](N)Cc5cn(C)cn5)CC4)cc3c2)cc1OC` [Compound 14], the concentration for half-maximal inhibition (IC50) was 3370 nM.

Consider `COc1ccc(-c2ccc3[nH]c(C4CCN(C(=O)[C@@H](N)Cc5ccsc5)CC4)cc3c2)cc1OC` [Compound 15], for which the IC50 was 2200 nM.

For the molecule `COc1ccc(-c2ccc3[nH]c(C4CCN(C(=O)[C@@H](N)Cc5cccs5)CC4)nc3c2)cc1OC` [Compound 18, (S)-2-amino-1-(4-(5-(3,4-dimethoxyphenyl)-1H-benzo[d]imidazol-2-yl)piperidin-1-yl)-3-(thiophen-2-yl)propan-1-one], the 50% inhibitory concentration (IC50) was 210 nM.

As to `NC(=O)c1cccc(-c2ccc3[nH]c(C4CCN(C(=O)[C@@H](N)Cc5cccs5)CC4)nc3c2)c1` [Compound 19], the half-inhibitory concentration (IC50) came to 240 nM.

For `N#Cc1cccc(-c2ccc3[nH]c(C4CCN(C(=O)[C@@H](N)Cc5cccs5)CC4)cc3c2)c1` [Compound 20], the 50% inhibitory concentration (IC50) amounted to 200 nM.

Take `N[C@@H](Cc1cccs1)C(=O)N1CCC(c2cc3cc(-c4cccc(C(=O)O)c4)ccc3[nH]2)CC1` [Compound 21]: the IC50 was determined as 540 nM.

On to `COc1ccc(-c2ccc3[nH]c(C4CCN(C(=O)[C@@H](N)Cc5nc(C)cs5)CC4)cc3c2)cc1OC` [Compound 22], for which the concentration for half-maximal inhibition (IC50) amounted to 18000 nM.

`N[C@@H](Cc1cccs1)C(=O)N1CCC(c2cc3cc(-c4cccnc4)ccc3[nH]2)CC1` [Compound 23]: the IC50 stood at 110 nM.

With `COc1ccc(-c2ccc3[nH]c(C4CCN(C(=O)[C@@H](N)Cc5ccc(Cl)s5)CC4)cc3c2)cc1OC` [Compound 24], the half-inhibitory concentration (IC50) came to 5800 nM.

Consider `COc1ccc(-c2ccc3[nH]c(C4CCN(C(=O)[C@@H](N)Cc5cccs5)CC4)cc3c2)cn1` [Compound 25], for which the IC50 stood at 250 nM.

On to `N[C@@H](Cc1cccs1)C(=O)N1CCC(c2cc3cc(-c4ccncc4)ccc3[nH]2)CC1` [Compound 26], for which the IC50 is 230 nM.

Regarding `N[C@@H](Cc1cccs1)C(=O)N1CCC(c2cc3cc(-c4ccc(C(=O)O)cc4)ccc3[nH]2)CC1` [Compound 27], the IC50 stood at 590 nM.

Turning to `COc1ccc(-c2ccc3[nH]c(C4CCN(C(=O)C(N)c5cccs5)CC4)cc3c2)cc1OC` (stereo not shown) [Compound 28], the IC50 was more than 20000 nM.

For the molecule `COc1ccc(-c2ccc3[nH]c(C4CCN(C(=O)C(N)c5ccco5)CC4)cc3c2)cc1OC` (stereo not shown) [Compound 29], the IC50 is more than 20000 nM.

As to `COc1ccc(-c2ccc3[nH]c(C4CCN(C(=O)C(N)c5ccsc5)CC4)cc3c2)cc1OC` (stereo not shown) [Compound 30], the half-maximal inhibitory concentration (IC50) was more than 20000 nM.

Take `N[C@@H](Cc1cccs1)C(=O)NCCc1cc2ccccc2o1` [Compound 35]: the IC50 came out at 1300 nM.

Take `CC[C@H](N)C(=O)NCCc1cc2cc(C(=O)Nc3ccc(OC)c(OC)c3)ccc2[nH]1` [Compound 36]: the half-inhibitory concentration (IC50) is more than 10000 nM.

In the case of `N[C@@H](Cc1cccs1)C(=O)NCCc1nc2ccccc2[nH]1` [Compound 37, (S)—N-(2-(1H-benzo[d]imidazol-2-yl)ethyl)-2-amino-3-(thiophen-2-yl)propanamide], the IC50 was found to be 4250 nM.

As for `CC[C@H](N)C(=O)NCCc1nc2ccccc2[nH]1` [Compound 38], the half-maximal inhibitory concentration (IC50) came to 6500 nM.

For `CC[C@H](N)C(=O)NCCc1nc2ccccc2n1C` [Compound 39], the IC50 stood at 43000 nM.

For `CC[C@H](N)C(=O)NCCCc1cc2ccccc2[nH]1` [Compound 40, (S)—N-(3-(1H-indol-2-yl)propyl)-2-aminobutanamide], the IC50 was 2900 nM.

For the molecule `CC[C@H](N)C(=O)NCCCc1cc2ccccc2n1C` [Compound 41, (S)-2-amino-N-(3-(1-methyl-1H-indol-2-yl)propyl)butanamide], the 50% inhibitory concentration (IC50) was determined as 6300 nM.

Regarding `CC[C@H](N)C(=O)NCCCc1cc2ccccc2o1` [Compound 42], the IC50 came to 3300 nM.

For the molecule `CC[C@H](N)C(=O)NCCCc1csc2ccccc12` [Compound 43], the IC50 was determined as 14000 nM.

For the molecule `CC[C@H](N)C(=O)NCCCc1cc2cc(-c3ccccc3)ccc2o1` [Compound 45], the IC50 was 9600 nM.

Take `CC[C@H](N)C(=O)NCCCc1cc2ccc(C(=O)N(CC)CC)cc2o1` [Compound 46]: the IC50 is 42000 nM.

As to `CC[C@H](NC(=O)OC(C)(C)C)C(=O)NCCCc1cc2cc(C(=O)O)ccc2[nH]1` [Compound 47, (S)-2-(3-(2-(tert-butoxycarbonylamino)butanamido)propyl)-1H-indole-5-carboxylic acid], the half-maximal inhibitory concentration (IC50) turned out to be 53000 nM.

With `CC[C@H](N)C(=O)NCCCc1cc2cc(C(=O)Nc3nc[nH]n3)ccc2[nH]1` [Compound 48], the IC50 is 6300 nM.

As for `CC[C@H](N)C(=O)NCCCc1cc2cc([N+](=O)[O-])ccc2o1` [Compound 49], the IC50 was found to be 19000 nM.

As for `CC[C@H](N)C(=O)NCCCc1cc2cc(C(=O)Nc3ccc(OC)c(OC)c3)ccc2[nH]1` [Compound 50, (S)-2-(3-(2-aminobutanamido)propyl)-N-(3,4-dimethoxyphenyl)-1H-indole-5-carboxamide], the IC50 came out at 240 nM.

Consider `CC[C@H](N)C(=O)NCCCc1cc2cc(C(=O)Nc3ccccc3)ccc2o1` [Compound 51], for which the concentration for half-maximal inhibition (IC50) amounted to 4100 nM.

For the molecule `CC[C@H](N)C(=O)NCCCc1cc2cc(C(=O)Nc3cccnc3)ccc2o1` [Compound 52], the half-inhibitory concentration (IC50) turned out to be 4000 nM.

As for `CC[C@H](N)C(=O)NCCCc1cc2cc(C(=O)NCc3ccccc3)ccc2o1` [Compound 53], the half-maximal inhibitory concentration (IC50) is 7400 nM.

Regarding `CC[C@H](N)C(=O)NCCCc1cc2cc(C(=O)Nc3cccc4ccccc34)ccc2o1` [Compound 54], the IC50 turned out to be 850 nM.

In the case of `CC[C@H](N)C(=O)NCCCc1cc2cc(C(=O)Nc3cccc4ncccc34)ccc2o1` [Compound 55], the half-inhibitory concentration (IC50) is 220 nM.

Consider `N[C@@H](Cc1cccs1)C(=O)NCCCc1cc2ccccc2o1` [Compound 56], for which the 50% inhibitory concentration (IC50) was 1100 nM.

Take `CC[C@H](N)C(=O)NCCCc1cc2cc(C(=O)Nc3ccc4ncsc4c3)ccc2o1` [Compound 57]: the half-maximal inhibitory concentration (IC50) amounted to 700 nM.

As to `CC[C@H](N)C(=O)NCCCc1cc2cc(C(=O)Nc3ccc(OC)c(OC)c3)ccc2o1` [Compound 58], the half-inhibitory concentration (IC50) came out at 730 nM.

For the molecule `CC[C@H](N)C(=O)NCCCc1cc2cc(C(=O)Nc3cccc4c3ncn4C)ccc2o1` [Compound 59], the IC50 is 1400 nM.

`CC[C@H](N)C(=O)NCCCc1cc2cc(C(=O)Nc3cc[nH]n3)ccc2[nH]1` [Compound 61]: the IC50 was found to be 4300 nM.

As for `CC[C@H](N)C(=O)NCCCc1cc2cc(C(=O)Nc3cc(-c4ccccc4)[nH]n3)ccc2[nH]1` [Compound 62], the IC50 stood at 2800 nM.

`CC[C@H](N)C(=O)NCCCc1cc2cc(C(=O)Nc3ncnc4[nH]ncc34)ccc2[nH]1` [Compound 63]: the concentration for half-maximal inhibition (IC50) turned out to be 2500 nM.
